Source: US20110166417A1, “METHOD AND DEVICE FOR REPAIR OF DEGENERATIVE CARTILAGE” (THE REGENTS OF UNIVERSITY OF MICHIGAN, priority 2008, published 2011)

How the values were obtained:
[1] = test system: BMP-2, aggrecan and type II collagen mRNA expression in rat IVD cells; assay: Mevalonate experiment; type: cell-based; details: mevalonate 200 μM
IVD cells = assay: IVD cell proliferation / range of cell tolerance; type: cell-based, Sprague-Dawley rats; details: rat IVD cells
From the text: (§1) Disc cell isolation: Nucleus pulposus and inner anulus fibrosus cells of lumbar intervertebral discs from Sprague-Dawley rats were harvested by the enzymatic digestion and grown in monolayer until reached confluence.
(§2) Monolayer and Three-dimensional cell culture: Cells were trypsinized and subcultured in 12-well plate or embedded and cultured in alginate beads supplemented with complete DMEM/F12 medium after primary culture.

[2] = test system: BMP-2, aggrecan and collagen II mRNA expression in IVD cells; assay: Quantitative real-time PCR, monolayer culture; type: cell-based, Sprague-Dawley rats; details: 3 μM, maximal at day 3
From the text: as §1, §2
Quantitative real-time PCR: Total RNAs were extracted and cDNAs were synthesized using Invitrogen […]™ first-strand synthesis kit.

rat IVD cells = assay: MTT assay, cell viability; type: cell-based
Procedure: MTT assay. Cell proliferation was determined by a modified MTT assay (Sigma-Aldrich) (47, 48). Briefly, at each time point, the medium was aspirated and washed with PBS once. MTT solution (0.5 mg/ml) in PBS was added and incubated at 37° C. for 1.5 hr. The cells were removed from the alginate bead and pelleted by centrifugation. The cell pellet was then washed with D-PBS once and 10% Triton X-100, 0.1 N HCl in 2-propanol solution was added to each well to dissolve the formazan at 4° C. for 3 hrs. The dissolved solution was centrifuged and the absorbance was determined immediately using a spectrophotometer at 540 nm wavelength filter. All experiments were performed in triplicate.

[3] = test system: BMP-2, aggrecan and type II collagen mRNA expression in rat IVD cells; assay: Quantitative real-time PCR, 3-D culture in alginate beads; type: cell-based, Sprague-Dawley rats
From the text: Monolayer and Three-dimensional cell culture: Cells were trypsinized and subcultured in 12-well plate or embedded and cultured in alginate beads supplemented with complete DMEM/F12 medium after primary culture. […] Quantitative real-time PCR: […] IVD Cell Isolation. Lumbar IVDs from Sprague-Dawley rats (Harlan Sprague-Dawley, Indianapolis, Ind.) aged 6-8 weeks were harvested immediately after euthanasia. NP and inner AF, including the transition zone (the area between the AF and the NP) were carefully removed from the disc and placed in DMEM/F12 medium (Gibco, Grand Island, N.Y.). […] Louis, Mo.) and 0.004% deoxyribonuclease II (Sigma-Aldrich) for 90 min at 37° C. under gentle agitation. The tissues were washed 3 times with Dulbecco's phosphate buffered saline (D-PBS) followed by digestion under the same conditions, except that the pronase was replaced with 0.04% collagenase type II (Sigma-Aldrich) for 6 hrs. […] Culture medium was changed on day 6 after cell seeding, and twice per week thereafter. Cell Culture in Alginate Beads. When the primary cell culture became confluent, the cells were trypsinized and washed twice with D-PBS and re-suspended in sterile 0.15 M NaCl containing 1.2% low-viscosity alginate (Sigma-Aldrich) at a density of 1×10^6 cells/ml. […] After 15 min, the newly formed alginate beads (containing about 12,000 cells/bead) were washed 3 times with sterile 0.15 M NaCl solution followed by 2 washes with DMEM/F-12 medium. […] Three days later, the medium was changed and treated with different doses of simvastatin (LKT Laboratories, St. […] To remove cells from the alginate bead, wells were rinsed 3 times with 0.15 M NaCl with gentle pipetting into the well. The rinse solution was incubated for 1 min and was aspirated off. Dissolving buffer (55 mmol/L sodium citrate and 0.15 M NaCl, pH 6.0) 3 times the volume of alginate was added to the wells, and plates were incubated at 37° C. for 15 min with gentle shaking. Cells were pelleted by centrifugation and the dissolved solution was collected for sGAG content measurement. The cell pellet was washed with D-PBS once and collected for DNA content determination or RNA extraction. All experiments were performed in triplicate. RNA Isolation and Reverse Transcription. Total RNA was extracted using the Trizol (Invitrogen, Carlsbad, Calif.) reagent followed by RNeasy Mini Kit (Qiagen, Inc., Valencia, Calif.) and DNase digestion with the RNase-free DNase set (Qiagen). Concentration of total RNA was determined at 260 nm with a spectrophotometer. Reverse transcription was carried out at 42° C. for 50 min in 20-μL volume with 100 ng of total RNA using the SuperScript First-Strand Synthesis System (Invitrogen, Carlsbad, Calif.). Quantitative Real-Time Polymerase Chain Reaction. Real-time polymerase chain reaction (PCR) was used to quantify gene expression levels of type II collagen, aggrecan, and BMP-2. GAPDH was used as an internal control and the TAQMAN® Real-Time PCR Kit (Applied Biosystems, Foster City, Calif.) was implemented. Reaction volume of 30 μl included 1 μL of cDNA, 1.5 ul of 20× of each primer/probe, and 12.5 μL of TAQMAN® PCR Master Mix (2×) (Applied Biosystems). Real-time PCR was performed using the following 3-step protocol: Step 1, 50° C. for 2 min; Step 2, 95° C. for 10 min; and Step 3, (95° C. for 15 sec, 60° C. for 1 min) times 45 cycles using the Gene Amp 7700 Sequence Detection System (Applied Biosystems). A positive standard curve for each primer was obtained by real-time PCR with serially-diluted cDNA sample mixture. The reaction efficacy of each gene was determined using the standard curves. The quantity of gene expression of aggrecan, type II collagen, and BMP-2 were calculated with standard samples and normalized with GAPDH internal control.

BMP-2 = target: T1, BMP-2 (Homo sapiens, UniProt P12643); details: noggin 3 μg/ml; cited from earlier work
T1 sequence (P12643 283-396): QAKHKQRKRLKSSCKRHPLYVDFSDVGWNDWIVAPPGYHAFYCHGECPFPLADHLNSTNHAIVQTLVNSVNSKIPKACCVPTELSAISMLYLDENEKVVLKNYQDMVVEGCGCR

[4] = test system: aggrecan and type II collagen mRNA expression in rat IVD cells; assay: BMP inhibition experiment (noggin); type: cell-based
Procedure: BMP Inhibition Experiment. […] On day 7 and/or day 14, the cells were removed from the alginate beads and the gene expression of type II collagen and aggrecan was determined.

[5] = noggin 3 μg/ml, simvastatin 3 μM, day 14

CC(O)(CCO)CC(=O)O (stereo not drawn) [Mevalonate, mevalonate]
aggrecan, type II collagen and BMP-2 gene expression, mevalonate alone ([1]; alginate beads): had no effect
effect on gene expression (BMP-2, aggrecan, type II collagen) upregulated by simvastatin ([1]; simvastatin 3 μM, days 7 and 14): completely reversed

CCC(C)(C)C(=O)O[C@H]1C[C@@H](C)C=C2C=C[C@H](C)[C@H](CC[C@@H]3C[C@@H](O)CC(=O)O3)[C@H]21 [simvastatin]
dose over which IVD cell proliferation was inhibited (IVD cells): over 3 μM
increase of BMP-2 mRNA expression [2]: 2 fold
IVD cell viability (rat IVD cells; 0.3 μM, time points tested): had no effect
IVD cell viability (rat IVD cells; 1 μM, from day 3 and thereafter): significant decrease
IVD cell viability (rat IVD cells; 3 μM, all time points tested): decreased
increase of collagen type II mRNA expression ([3]; 3-D culture (alginate beads), 3 μM, day 21): 16 fold
increase of aggrecan mRNA expression ([3]; 3-D culture, 3 μM, day 21): 11 fold
increase of BMP-2 mRNA expression ([3]; 3-D culture, 3 μM, peak level at day 7): 5 fold
day of maximal type II collagen mRNA expression ([3]; alginate beads): 21 days
day of maximum BMP-2 mRNA expression ([3]; alginate beads, 3 μM): 2 days
day of maximum aggrecan mRNA expression ([3]; alginate beads, 3 μM): 21 days

Noggin
block of BMP-2 activity (BMP-2): over 90%
aggrecan and type II collagen mRNA expression, noggin alone ([4]; noggin 500 ng/ml, no simvastatin): had no interference
block of aggrecan and type II collagen gene expression upregulated by simvastatin ([4]; noggin 500 ng/ml, simvastatin 3 μM, day 7): significantly blocked
block of aggrecan and type II collagen gene expression upregulated by simvastatin ([4]; noggin 500 ng/ml, simvastatin 3 μM, day 14): did not endure
aggrecan and type II collagen gene expression compared with Veh+Veh, noggin alone ([4]; noggin 3 μg/ml): inhibited both gene expressions significantly
effect on aggrecan gene expression upregulated by simvastatin [4, 5]: failed to block
effect on type II collagen gene expression upregulated by simvastatin [4, 5]: attenuated
effect on type II collagen gene expression upregulated by simvastatin ([4]; noggin 3 μg/ml, simvastatin 3 μM, day 14, listed as noggin): significantly attenuated
